3 compounds from patent US20030007964A1, “Method for treating rheumatoid arthritis with composition containing histone” (SAMYANG GENEX CORPORATION, priority 1998, published 2003) can be followed below.

The subject of assay [1] is collagen induced arthritis. As to the kind of experiment: Treatment effect on collagen induced arthritis in mice, histone H1 (Example 4). The format is in vivo, DBA/1J female mice. Set-up: key to arthritis index: sum of 0–3 per-foot scores over 4 feet, max 12. The method, then: (§1) Five-week old DBA/1J female mice were imported from Charles River Japan and allowed to adapt in an animal room for two weeks before using them in the experiments at the age of 7 weeks (20-25 g).
(§2) Isolated and quantified type II collagen of chicken (Sigma Chemical Co., St. Louis, Mo., U.S.A.) was solubilized in 0.1 N acetic acid at a concentration of 2 mg/ml. The solution was mixed with an equal amount of a complete Freund's adjuvant at 4° C. to form a suspension. One hundred microliters of this mixture was injected […] around the origin of the tail vein and further inoculated at 3 and 6 weeks after the first injection (D. E. Trentham et. al., Autoimmunity to Type II collagen: An Experimental Model of Arthritis, J. Exp. Med. 146; 857-868 (1977)). Arthritis was induced from the 4th week after the first injection.
(§3) Clinical incidence of arthritis % (C.I.A) and arthritis index were examined. C.I.A. was expressed as the percentage of mice that have arthritic symptoms among the total mice. The degree of inflammation expressed as the arthritis index was categorized from 0 to 3 by 2 researchers every week as below. Pictures of the feet of some mice were taken 6 weeks after the collagen administration.
(§4) 1: One or two toes were swollen with suffusion or had minimal swelling
(§5) 2: Definite suffusion or local swelling in many toes
(§6) 3: Observation of severe edema and swelling up to the knee and restricted use of the feet.
(§7) The arthritis index was calculated for 4 feet (2 hind feet and 2 fore feet) giving the maximum value of 12. An index of 6-8 was considered severe since collagen induced arthritis invades in general mainly the hind feet (Korea J. Immunol. 18, 437, 1996; J. Immunol. 151, 6546,1993).
As a test group to examine the treatment effect, 1 mg/kg body weight of histone H1 was administered into 10 mice via intraperitoneal injection 2 times every week from the 6th week (after arthritis induction) up to the 10th week. Histone H1 was diluted at a concentration of 5 mg/ml in PBS. As a comparison group, 1 mg/kg body weight of dexamethasone, a currently available rheumatoid arthritis drug, was administered into 10 mice via an intraperitoneal injection 2 times every week from the 6th week (after arthritis induction) up to the 10th week. Identical control group was used as in EXAMPLE 1.

Assay [2] has as its system collagen induced arthritis. As to the kind of experiment: Treatment effect on collagen induced arthritis in mice, histone H2A and its active fragment (Example 7). Format: in vivo. The method, then:
as §1, §2, §3, §4, §5, §6, §7
As a test group to examine the treatment effect, 5 mice for histone H2A and 7mice for histone H2A active fragment were used. 1 mg/kg body weight of histone H2A or histone H2A active fragment was administered into the mice via intraperitoneal injection 2 times every week from the 6th week (after arthritis induction) up to the 10th week. Histone H2A or histone H2A active fragment was diluted at a concentration of 5 mg/ml in PBS. As a comparison group, 1 mg/kg body weight of dexamethasone, a currently available rheumatoid arthritis drug, was administered into 7 mice via an intraperitoneal injection 2 times every week from the 6th week (after arthritis induction) up to the 10th week. As a control group, […] of PBS was administered into 7 mice every week from the third week up to 10th week after the first collagen injection.

Assay [3] relates to collagen induced arthritis. Nature of the assay: Preventive effect against collagen induced arthritis in mice (Example 3). Format: in vivo, DBA/1J female mice. To be noted: preventive regimen. As for the experimental part: as §1, §2, §3, §4, §5, §6, §7
As a test group to examine the preventive effect, 1 mg/kg body weight of histone H1 was administered into 10 mice via intraperitoneal injection 2 times every week from the third week (before arthritis induction) up to 10th week after the first injection. Histone H1 was diluted at a concentration of 5 mg/ml in PBS. As a comparison group, 1 mg/kg body weight of dexamethasone, a currently available rheumatoid arthritis drug, was administered into 10 mice via intraperitoneal injection 2 times every week from the third week (before arthritis induction) up to 10th week after the first injection. As a control group, 300 μl of PBS was administered into 20 mice 2 times every week from the third week up to 10th week after the first collagen injection.

The test system of assay [4] is collagen induced arthritis. Nature of the assay: Pathological observation of leg joints by H-E staining. The format is in vivo, mice. Particulars: treatment regimen; 10 weeks after antigen inoculation. The text has this: Mice were sacrificed by blood evacuation from the heart. The legs were cut immediately after the sacrifice and fixed in formalin. After the decalcification, legs were stained by hematoxylin-Eosin.

The subject of assay [5] is anti-collagen antibody (Type II collagen). Nature of the assay: Serum anti-collagen antibody level by ELISA. Format: in vivo, mice. Particulars: serum at 10th week. The method, then:
At the 10th week the serum was isolated from the blood obtained through a heart puncture. The serum was kept at −80° C. and thawed immediately before the experiment to measure the anti-collagen antibody level by performing an ELISA (D. E. Tretham & R. A. Dynesius-Trentham, J. Immunol. 130; 2689-2692 (1983)). Type II collagen (25 μg/ml) in 0.1 M PBS was placed in each well of a 96-well polystyrene microplate (Nunc, Denmark) and was incubated at 4° C. for 8 hours. After the incubation, the wells were washed several times with a PBS-0.05% Tween 20 solution. To prevent non-specific immune reactions, PBS-0.5% ovalbumin was added in each well and incubated for an hour at room temperature and subsequently washed again with the PBS-0.05% Tween 20 solution. The serum, diluted 500 times with a buffer solution was added in each well and reacted for 2 hours at room temperature and further washed with the PBS-0.05% Tween 20 solution. After reacting each well with alkaline phosphatase conjugated goat anti-mouse IgA and IgM for 2 hours and adding 1 mg/ml of p-nitrophenyl phosphate, the absorbance at 450 nm was measured. The anti-collagen antibody level was measured twice for each sample and averaged.
The anti-collagen antibody level was measured to estimate the immune reaction as in EXAMPLE 3. […]
Background: In an ELISA, binding on a coated surface is turned into a signal by an enzyme label.

Where [6] appears, read: treatment regimen from 6th week, 7th week.
[7] abbreviates: treatment regimen from 6th week, 8th week.
[8] abbreviates: treatment regimen from 6th week, 10th week.
Setting [9] is: test group at 5th week, before administration (baseline).

For the compound `C[C@@H]1C[C@H]2[C@@H]3CCC4=CC(=O)C=C[C@]4(C)[C@@]3(F)[C@@H](O)C[C@]2(C)[C@@]1(O)C(=O)CO` [dexamethasone, reference compound], the “C.I.A. (clinical incidence of arthritis)” value in assay [1] (setting [6]) is listed as 22.2%; in assay [1] (setting [7]), 33.3%; in assay [1] (treatment regimen from 6th week, 9th week) it was 22.2%. In addition, the arthritis index in assay [1] (setting [6]) came out at 2.67; in assay [1] (setting [7]), 1.67; in assay [1] (setting [8]), 3.00; in assay [2] (1 mg/kg i.p. from 6th week, 8th week) it was 4.57; in assay [2] (1 mg/kg i.p. from 6th week, 9th week), 1.86; in assay [2] (1 mg/kg i.p. from 6th week, 10th week), 1.86. Moreover, the arthritis index is on record as 2.00 in assay [3] (5 weeks) and 1.50 in assay [3] (6 weeks).
As for Histone H1, the “formation of pannus, erosion of cartilage or manifestation of inflammatory cells (H-E staining)” value in assay [4] is “not observed”. Moreover, the “anti-collagen antibody level (absorbance at 450 nm)” value in assay [5] (preventive regimen, diluted 500 times) is 0.588±.214; in assay [5] (treatment regimen (from 6th week)), 0.540±170. Moreover, the “edema of fore feet (pictures)” value in assay [1] (6th week after administration of the collagen) was “improvement of edema was observed”. Besides, the arthritis index in assay [1] (setting [9]) came to 3.33±0.58; in assay [1] (treatment regimen from 6th week, 6th week) it was 2.67±0.58; in assay [1] (setting [6]), 1.00; in assay [1] (setting [7]) it was 2; in assay [1] (setting [8]) it was 1.00; in assay [3] (mice that had arthritis, 10th week), 2.25±1.26. The “C.I.A. (clinical incidence of arthritis)” value is 12.5% in assay [1] (setting [6]); 14.3% in assay [1] (setting [7]); 14.3% in assay [1] (setting [8]); 37.5% in assay [1] (treatment regimen, 1 mg/kg i.p. 2 times every week from 6th week, 6th week); 60% in assay [3] (1 mg/kg i.p., 7th week); 60% in assay [3] (1 mg/kg i.p., 8th week). In addition, in assay [3] (1 mg/kg i.p., 10th week), the “C.I.A. (clinical incidence of arthritis)” value was found to be 80%. Further, in assay [1] (treatment regimen from 6th week, after the 7th week), the “fraction of the induced arthritis completely cured” value is recorded as “⅔”. Further, the “week at which arthritis was first observed after the inoculation” value in assay [3] (1 mg/kg i.p.) came to 7 week. Also, in assay [3] (1 mg/kg i.p. 2 times every week from third week, up to the 6th week), the arthritis induction result is “complete prevention of arthritis induction”. For the same compound, the “arthritis index relative to the control group” value in assay [3] (7th week) was determined as 60%.
As to Histone H2A, the arthritis index in assay [2] (1 mg/kg i.p. 2 times every week from 6th week, 7th week) came to 4.80±0.45; in assay [2] (1 mg/kg i.p. from 6th week, after the 9th week), 2.80; in assay [2] (setting [9]), 3.60±0.55.
